Data reported in ChEMBL document CHEMBL1909046, “DrugMatrix in vitro pharmacology data”.

Assays:
[1] = DRUGMATRIX: Sodium/nucleoside co-transporter radioligand binding (ligand: nitrobenzylthioinosine); type: cell membranes, Cavia porcellus, Dunkin-Hartley, Cerebral cortex, Membrane; conditions: Not Active = under 50% inhibition at 10 µM
[2] = biological target: T1, Calcitonin receptor (Homo sapiens, UniProt P30988); type: cell membranes, Membrane; conditions: t47d; note: in other assays of this panel Not Active means under 50% inhibition at 10 µM
T1 sequence (P30988 whole entry): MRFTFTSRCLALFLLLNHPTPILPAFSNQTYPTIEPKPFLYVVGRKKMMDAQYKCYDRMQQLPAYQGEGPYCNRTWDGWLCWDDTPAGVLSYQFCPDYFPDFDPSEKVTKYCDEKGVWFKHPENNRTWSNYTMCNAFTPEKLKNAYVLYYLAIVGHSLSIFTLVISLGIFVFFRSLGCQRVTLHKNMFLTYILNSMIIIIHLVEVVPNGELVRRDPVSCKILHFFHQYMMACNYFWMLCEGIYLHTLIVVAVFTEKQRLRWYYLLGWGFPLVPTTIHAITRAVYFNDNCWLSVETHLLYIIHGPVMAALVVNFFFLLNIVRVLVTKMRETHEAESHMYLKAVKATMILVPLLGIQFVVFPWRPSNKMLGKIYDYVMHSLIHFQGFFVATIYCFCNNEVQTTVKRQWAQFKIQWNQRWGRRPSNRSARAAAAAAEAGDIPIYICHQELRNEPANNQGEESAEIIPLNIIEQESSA

[3] = DRUGMATRIX: Serotonin (5-Hydroxytryptamine) 5-HT3 radioligand binding (ligand: [3H] GR-65630); type: cell membranes, Membrane; conditions: hek293; Not Active = under 50% inhibition at 10 µM
[4] = biological target: 5-hydroxytryptamine receptor 4 (Cavia porcellus, UniProt O70528); type: cell membranes, Dunkin-Hartley, Striatum, Membrane; note: in other assays of this panel Not Active means under 50% inhibition at 10 µM
[5] = DRUGMATRIX: Sigma2 radioligand binding (ligand: [3H] Ifenprodil); type: cell membranes, Rattus norvegicus, Wistar, Brain, Membrane; conditions: Not Active = under 50% inhibition at 10 µM
[6] = biological target: T2, C-X-C chemokine receptor type 1 (Homo sapiens, UniProt P25024); note: in other assays of this panel Not Active means under 50% inhibition at 10 µM
T2 sequence (P25024 whole entry): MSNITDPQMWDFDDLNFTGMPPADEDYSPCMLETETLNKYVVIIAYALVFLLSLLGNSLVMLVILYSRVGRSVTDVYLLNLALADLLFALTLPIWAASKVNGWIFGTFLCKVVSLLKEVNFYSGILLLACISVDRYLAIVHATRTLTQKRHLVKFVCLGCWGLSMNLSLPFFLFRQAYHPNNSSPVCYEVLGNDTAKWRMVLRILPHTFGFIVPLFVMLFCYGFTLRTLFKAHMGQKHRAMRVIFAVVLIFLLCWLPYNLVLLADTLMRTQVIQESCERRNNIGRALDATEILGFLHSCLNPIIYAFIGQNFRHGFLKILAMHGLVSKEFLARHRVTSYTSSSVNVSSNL

[7] = biological target: D(1A) dopamine receptor (Homo sapiens, UniProt P21728); test: DRUGMATRIX: Dopamine D1 radioligand binding (ligand: [3H] SCH-23390); type: cell membranes, CHO, Membrane; conditions: cho; Not Active = under 50% inhibition at 10 µM
[8] = biological target: Sodium-dependent dopamine transporter (Homo sapiens, UniProt Q01959); test: DRUGMATRIX: Dopamine Transporter radioligand binding (ligand: [125I] RTI-55); type: cell membranes, CHO-K1, Membrane; conditions: cho-k1; Not Active = under 50% inhibition at 10 µM
[9] = DRUGMATRIX: GABAA, Muscimol, Central radioligand binding (ligand: [3H] Muscimol); type: cell membranes, Rattus norvegicus, Wistar, Brain, Membrane; conditions: Not Active = under 50% inhibition at 10 µM
[10] = DRUGMATRIX: Glutamate, AMPA radioligand binding (ligand: [3H] AMPA); type: cell membranes, Rattus norvegicus, Wistar, Cerebral cortex, Membrane; conditions: Not Active = under 50% inhibition at 10 µM
[11] = DRUGMATRIX: Glutamate, NMDA, Phencyclidine radioligand binding (ligand: [3H] TCP); type: cell membranes, Rattus norvegicus, Wistar, Cerebral cortex, Membrane; conditions: Not Active = under 50% inhibition at 10 µM
[12] = biological target: Insulin receptor (Rattus norvegicus, UniProt P15127); type: cell membranes, Wistar, Liver, Membrane; note: in other assays of this panel Not Active means under 50% inhibition at 10 µM
[13] = biological target: T3, Muscarinic acetylcholine receptor M4 (Homo sapiens, UniProt P08173); type: cell membranes, CHO-K1, Membrane; conditions: cho-k1; note: in other assays of this panel Not Active means under 50% inhibition at 10 µM
T3 sequence (P08173 whole entry): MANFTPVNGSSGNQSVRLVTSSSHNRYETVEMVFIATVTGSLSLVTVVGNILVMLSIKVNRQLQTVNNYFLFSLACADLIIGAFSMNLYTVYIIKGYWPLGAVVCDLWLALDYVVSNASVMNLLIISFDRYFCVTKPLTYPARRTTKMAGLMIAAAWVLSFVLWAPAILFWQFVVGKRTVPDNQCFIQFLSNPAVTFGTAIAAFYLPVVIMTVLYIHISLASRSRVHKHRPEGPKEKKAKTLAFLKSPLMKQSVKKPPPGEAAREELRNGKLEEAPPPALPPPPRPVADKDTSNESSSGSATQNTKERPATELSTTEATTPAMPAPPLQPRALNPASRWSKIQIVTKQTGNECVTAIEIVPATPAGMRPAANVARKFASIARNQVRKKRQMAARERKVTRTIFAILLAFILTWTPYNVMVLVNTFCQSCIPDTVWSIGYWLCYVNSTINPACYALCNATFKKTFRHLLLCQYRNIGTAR

[14] = DRUGMATRIX: Phorbol Ester radioligand binding (ligand: [3H] PDBu); type: cell membranes, Mus musculus, ICR, Brain, Membrane; conditions: Not Active = under 50% inhibition at 10 µM
[15] = biological target: cGMP-specific 3',5'-cyclic phosphodiesterase (Homo sapiens, UniProt O76074); test: DRUGMATRIX: Phosphodiesterase PDE5 enzyme inhibition (substrate: [3H]cGMP + cGMP); type: tissue-based, Platelet; conditions: platelet; Not Active = under 50% inhibition at 10 µM
[16] = biological target: T4, Neutrophil elastase (Homo sapiens, UniProt P08246); type: tissue-based
T4 sequence (P08246 whole entry): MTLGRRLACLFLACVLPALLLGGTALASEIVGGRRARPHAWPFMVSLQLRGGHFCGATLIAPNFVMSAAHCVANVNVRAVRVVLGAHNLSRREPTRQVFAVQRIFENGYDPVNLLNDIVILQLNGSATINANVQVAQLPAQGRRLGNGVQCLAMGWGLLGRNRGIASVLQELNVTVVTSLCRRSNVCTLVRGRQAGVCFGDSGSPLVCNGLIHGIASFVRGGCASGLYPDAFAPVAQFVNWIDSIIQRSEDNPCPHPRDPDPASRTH

[17] = biological target: Mitogen-activated protein kinase 1 (Homo sapiens, UniProt P28482); test: DRUGMATRIX: Protein Serine/Threonine Kinase, ERK2 enzyme inhibition (substrate: Myelin Basic Protein); design: species or system Escherichia coli; conditions: Not Active = under 50% inhibition at 10 µM
[18] = biological target: Mitogen-activated protein kinase 14 (Homo sapiens, UniProt Q16539); design: species or system Escherichia coli
[19] = biological target: Protein phosphatase 3 catalytic subunit alpha (Homo sapiens, UniProt Q08209); design: species or system Escherichia coli
[20] = biological target: Tyrosine-protein kinase Fyn (Homo sapiens, UniProt P06241); test: biochemical; type: cell-based, Insect cells; conditions: insect cells
Sequence of Tyrosine-protein kinase Fyn (P06241 whole entry): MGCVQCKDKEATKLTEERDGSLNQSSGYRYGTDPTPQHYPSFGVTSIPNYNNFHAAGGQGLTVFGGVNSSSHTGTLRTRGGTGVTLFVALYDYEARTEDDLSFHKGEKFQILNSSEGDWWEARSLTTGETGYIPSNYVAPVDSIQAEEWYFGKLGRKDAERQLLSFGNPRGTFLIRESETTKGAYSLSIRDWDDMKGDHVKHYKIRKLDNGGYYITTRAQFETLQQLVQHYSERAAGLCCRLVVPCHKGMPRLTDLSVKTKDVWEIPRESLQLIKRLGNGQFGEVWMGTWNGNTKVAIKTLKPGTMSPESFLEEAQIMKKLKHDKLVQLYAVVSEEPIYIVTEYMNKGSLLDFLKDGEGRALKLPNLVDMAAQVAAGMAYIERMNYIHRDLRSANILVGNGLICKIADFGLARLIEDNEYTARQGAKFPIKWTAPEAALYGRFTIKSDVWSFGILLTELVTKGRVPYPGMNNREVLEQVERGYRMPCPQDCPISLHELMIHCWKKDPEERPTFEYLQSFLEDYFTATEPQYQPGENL

Sequence of Mitogen-activated protein kinase 14 (Q16539 whole entry): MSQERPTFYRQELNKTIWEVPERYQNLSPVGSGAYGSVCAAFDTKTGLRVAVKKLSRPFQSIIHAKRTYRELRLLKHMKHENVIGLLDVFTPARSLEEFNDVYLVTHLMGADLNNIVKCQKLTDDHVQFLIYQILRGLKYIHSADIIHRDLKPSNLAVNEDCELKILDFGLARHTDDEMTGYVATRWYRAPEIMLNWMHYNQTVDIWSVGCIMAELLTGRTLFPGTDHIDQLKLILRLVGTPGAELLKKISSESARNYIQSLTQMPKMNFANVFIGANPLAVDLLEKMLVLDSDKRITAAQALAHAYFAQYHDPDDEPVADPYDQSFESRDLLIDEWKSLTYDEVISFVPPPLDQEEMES
Sequence of Mitogen-activated protein kinase 1 (P28482 whole entry): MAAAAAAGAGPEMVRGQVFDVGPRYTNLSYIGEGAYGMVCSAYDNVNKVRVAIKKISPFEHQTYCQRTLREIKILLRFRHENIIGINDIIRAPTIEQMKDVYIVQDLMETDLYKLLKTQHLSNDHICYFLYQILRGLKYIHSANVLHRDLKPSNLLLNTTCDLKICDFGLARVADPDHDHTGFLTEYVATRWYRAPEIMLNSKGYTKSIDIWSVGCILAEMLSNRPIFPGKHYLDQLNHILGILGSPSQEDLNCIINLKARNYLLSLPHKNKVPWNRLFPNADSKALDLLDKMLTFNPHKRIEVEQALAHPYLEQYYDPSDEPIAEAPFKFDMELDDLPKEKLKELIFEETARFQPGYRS
Sequence of Insulin receptor (P15127 27-759 limits assumed): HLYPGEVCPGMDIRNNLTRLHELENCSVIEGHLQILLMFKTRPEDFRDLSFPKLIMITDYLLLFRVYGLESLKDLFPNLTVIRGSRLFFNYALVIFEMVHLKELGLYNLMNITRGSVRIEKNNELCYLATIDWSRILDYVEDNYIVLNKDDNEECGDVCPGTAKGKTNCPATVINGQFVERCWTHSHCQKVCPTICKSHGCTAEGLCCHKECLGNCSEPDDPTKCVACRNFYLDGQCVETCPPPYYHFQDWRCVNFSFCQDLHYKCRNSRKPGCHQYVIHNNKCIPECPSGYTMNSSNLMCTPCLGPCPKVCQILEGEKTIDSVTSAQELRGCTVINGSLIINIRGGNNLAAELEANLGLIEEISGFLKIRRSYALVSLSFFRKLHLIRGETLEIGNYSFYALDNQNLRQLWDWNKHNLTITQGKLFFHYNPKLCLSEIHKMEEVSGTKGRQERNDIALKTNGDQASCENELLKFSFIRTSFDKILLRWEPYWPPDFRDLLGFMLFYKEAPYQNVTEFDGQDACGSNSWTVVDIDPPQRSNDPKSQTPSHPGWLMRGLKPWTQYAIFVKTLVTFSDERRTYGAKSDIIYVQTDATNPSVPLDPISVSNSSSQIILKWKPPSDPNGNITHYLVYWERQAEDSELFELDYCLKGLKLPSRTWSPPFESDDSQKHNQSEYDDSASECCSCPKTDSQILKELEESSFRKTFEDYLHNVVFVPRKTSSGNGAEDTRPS
Sequence of Insulin receptor (P15127 764-1383 limits assumed): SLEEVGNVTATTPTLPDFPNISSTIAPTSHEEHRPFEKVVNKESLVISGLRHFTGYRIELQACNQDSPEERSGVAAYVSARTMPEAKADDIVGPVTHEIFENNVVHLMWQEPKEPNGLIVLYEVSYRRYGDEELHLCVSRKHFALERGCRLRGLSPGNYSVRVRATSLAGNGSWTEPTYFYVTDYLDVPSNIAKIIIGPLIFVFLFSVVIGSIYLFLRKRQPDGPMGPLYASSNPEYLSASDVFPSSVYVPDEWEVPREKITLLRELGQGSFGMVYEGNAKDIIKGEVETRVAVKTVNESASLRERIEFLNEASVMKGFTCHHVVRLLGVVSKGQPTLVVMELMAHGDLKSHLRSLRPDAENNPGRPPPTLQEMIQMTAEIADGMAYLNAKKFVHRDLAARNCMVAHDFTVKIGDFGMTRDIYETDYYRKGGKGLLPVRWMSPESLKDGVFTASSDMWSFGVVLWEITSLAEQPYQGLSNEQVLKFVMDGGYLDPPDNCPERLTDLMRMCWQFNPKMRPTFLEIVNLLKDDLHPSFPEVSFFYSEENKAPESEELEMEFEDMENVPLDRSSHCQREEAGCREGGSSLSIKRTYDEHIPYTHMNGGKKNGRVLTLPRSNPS
Sequence of 5-hydroxytryptamine receptor 4 (O70528 whole entry): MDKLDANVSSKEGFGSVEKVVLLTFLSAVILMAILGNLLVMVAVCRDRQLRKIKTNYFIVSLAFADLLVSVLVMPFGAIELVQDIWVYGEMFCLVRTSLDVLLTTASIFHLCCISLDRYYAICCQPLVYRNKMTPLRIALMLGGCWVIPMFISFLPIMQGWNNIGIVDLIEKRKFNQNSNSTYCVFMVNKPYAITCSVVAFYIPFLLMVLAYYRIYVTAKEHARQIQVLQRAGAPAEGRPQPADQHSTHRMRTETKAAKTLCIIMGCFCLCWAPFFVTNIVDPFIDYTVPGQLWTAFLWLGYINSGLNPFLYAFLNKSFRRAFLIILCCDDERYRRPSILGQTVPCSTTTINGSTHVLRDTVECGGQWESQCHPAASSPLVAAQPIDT
Sequence of D(1A) dopamine receptor (P21728 whole entry): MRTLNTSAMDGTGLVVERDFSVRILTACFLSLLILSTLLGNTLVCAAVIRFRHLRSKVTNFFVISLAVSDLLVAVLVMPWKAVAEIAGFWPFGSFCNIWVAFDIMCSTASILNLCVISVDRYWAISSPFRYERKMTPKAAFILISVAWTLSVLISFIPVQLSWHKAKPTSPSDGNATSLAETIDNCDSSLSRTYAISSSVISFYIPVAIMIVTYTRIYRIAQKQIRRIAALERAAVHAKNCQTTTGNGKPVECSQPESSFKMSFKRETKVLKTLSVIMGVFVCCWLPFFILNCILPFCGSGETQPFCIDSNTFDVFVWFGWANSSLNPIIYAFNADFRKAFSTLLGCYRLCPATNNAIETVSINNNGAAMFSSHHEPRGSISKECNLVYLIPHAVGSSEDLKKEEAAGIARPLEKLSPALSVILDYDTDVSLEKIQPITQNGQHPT
Sequence of Sodium-dependent dopamine transporter (Q01959 whole entry): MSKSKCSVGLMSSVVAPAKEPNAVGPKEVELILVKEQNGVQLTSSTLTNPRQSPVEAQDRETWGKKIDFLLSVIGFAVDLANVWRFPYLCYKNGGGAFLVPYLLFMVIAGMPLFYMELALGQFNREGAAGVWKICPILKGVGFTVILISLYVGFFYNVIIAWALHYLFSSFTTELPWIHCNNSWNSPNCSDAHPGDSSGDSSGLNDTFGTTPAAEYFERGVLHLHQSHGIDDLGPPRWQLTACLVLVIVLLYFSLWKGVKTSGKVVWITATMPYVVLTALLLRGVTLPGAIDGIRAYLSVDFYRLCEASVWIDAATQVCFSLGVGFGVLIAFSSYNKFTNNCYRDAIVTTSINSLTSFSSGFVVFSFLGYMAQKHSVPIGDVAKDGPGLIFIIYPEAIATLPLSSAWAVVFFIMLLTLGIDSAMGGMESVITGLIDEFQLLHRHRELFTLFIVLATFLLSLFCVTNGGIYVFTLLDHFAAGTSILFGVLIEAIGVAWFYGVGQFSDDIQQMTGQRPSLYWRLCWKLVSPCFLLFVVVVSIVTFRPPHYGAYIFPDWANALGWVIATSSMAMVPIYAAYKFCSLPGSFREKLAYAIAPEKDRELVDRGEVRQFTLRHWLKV

CN[C@@H]1[C@@H](O)[C@@H](O[C@@H]2[C@@H](O)[C@H](O[C@H]3OC(CN)=CC[C@H]3N)[C@@H](N)C[C@H]2N)OC[C@]1(C)O [SISOMICIN]
Not Active: IC50 [1] | Ki [1] | IC50 [2] | IC50 [3] | Ki [3] | IC50 [4] | IC50 [5] | Ki [5] | IC50 [6] | IC50 [7] | IC50 [8] | IC50 [9] | Ki [9] | IC50 [10] | Ki [10] | IC50 [11] | Ki [11] | IC50 [12] | IC50 [13] | IC50 [14] | Ki [14] | IC50 [15] | IC50 [16] | IC50 [17] | IC50 [18] | IC50 [19] | IC50 [20]

NNc1ccccc1 [PHENYLHYDRAZINE]
Not Active: IC50 [1] | Ki [1] | IC50 [2] | IC50 [3] | Ki [3] | IC50 [4] | IC50 [5] | Ki [5] | IC50 [6] | IC50 [7] | IC50 [8] | IC50 [9] | Ki [9] | IC50 [10] | Ki [10] | IC50 [11] | Ki [11] | IC50 [12] | IC50 [13] | IC50 [14] | Ki [14] | IC50 [15] | IC50 [16] | IC50 [17] | IC50 [18] | IC50 [19] | IC50 [20]
